In DBAASP:
≈ marks a conversion by molar mass, not a printed value.

How the values were obtained:
Test in all cases: ≥ marks a high value that may be exact or a test limit, other limits are often not marked, values filed in µg/mL are converted to µM
[1] = system: Veillonella atypica PK1910
[2] = system: Streptococcus mutans
[3] = system: Lacticaseibacillus casei ATCC 4646
[4] = system: Streptococcus sanguinis NY101
[5] = system: Streptococcus gordonii Challis DL1
[6] = system: Streptococcus mitis ATCC 903
[7] = system: Staphylococcus aureus CIB 85462
[8] = system: Escherichia coli CIB 84492
[9] = system: Candida albicans CIB 45437
[10] = system: Escherichia coli ATCC 25922
[11] = system: Staphylococcus aureus ATCC 25923
[12] = system: Candida albicans ATCC 20032
[13] = system: Bacillus subtilis ATCC 6633

MIC [1] | MIC [2] | MIC [3] | MIC [4] | MIC [5] | MIC [6] | MIC [7] | MIC [8] | MIC [9] | MIC [10] | MIC [11] | MIC [12] | MIC [13] | SMILES
2.83 µM (≈ 8 µg/mL) | 2.83 µM (≈ 8 µg/mL) | 5.67 µM (≈ 16 µg/mL) | 5.67 µM (≈ 16 µg/mL) | 11.3 µM (≈ 32 µg/mL) | 22.7 µM (≈ 64 µg/mL) |  |  |  |  |  |  |  | CC[C@H](C)[C@H](N)C(=O)N[C@@H](CCCCN)C(=O)N[C@@H](CCC(N)=O)C(=O)N[C@@H](CC(C)C)C(=O)N[C@@H](CC(C)C)C(=O)N[C@@H](Cc1cnc[nH]1)C(=O)N[C@@H](Cc1ccccc1)C(=O)N[C@@H](Cc1ccccc1)C(=O)N[C@@H](CCC(N)=O)C(=O)N[C@@H](CCCN=C(N)N)C(=O)N[C@@H](Cc1ccccc1)C(=O)NCC(=O)NCC(=O)NCC(=O)N[C@@H](CCCN=C(N)N)C(=O)N[C@@H](Cc1c[nH]c2ccccc12)C(=O)N[C@@H](CCCN=C(N)N)C(=O)N[C@@H](Cc1c[nH]c2ccccc12)C(=O)N[C@@H](CCCN=C(N)N)C(=O)N[C@@H](Cc1c[nH]c2ccccc12)C(=O)N[C@@H](Cc1ccccc1)C(N)=O [IKQLLHFFQRFGGGRWRWRWF]
 |  |  |  |  |  | 7.69 µM (≈ 16 µg/mL) | 15.4 µM (≈ 32 µg/mL) | 30.8 µM (≈ 63.9 µg/mL) | 15.4 µM (≈ 32 µg/mL) | 7.69 µM (≈ 16 µg/mL) |  |  | CC[C@H](C)[C@H](NC(=O)CN)C(=O)N[C@@H](Cc1ccccc1)C(=O)NCC(=O)N[C@@H](CCCCN)C(=O)N[C@H](C(=O)N[C@@H](CC(C)C)C(=O)NCC(=O)N[C@H](C(=O)NCC(=O)N[C@@H](CCCCN)C(=O)N[C@@H](CCCCN)C(=O)N[C@H](C(=O)N[C@@H](CC(C)C)C(=O)N[C@H]1CSSC[C@@H](C(=O)O)NC(=O)[C@H](CCSC)NC(=O)CNC(=O)[C@H](CO)NC(=O)[C@H](CC(C)C)NC(=O)CNC1=O)C(C)C)C(C)C)[C@@H](C)CC [GIFGKILGVGKKVLCGLSGMC]
 |  |  |  |  |  |  |  |  | 7.05 µM (≈ 18.8 µg/mL) | 3.52 µM (≈ 9.4 µg/mL) | ≥ 37.5 µM | ≥ 37.5 µM | CC[C@H](C)[C@H](NC(=O)CN)C(=O)NCC(=O)NCC(=O)N[C@@H](CCCCN)C(=O)N[C@H](C(=O)N[C@@H](CC(C)C)C(=O)NCC(=O)NCC(=O)N[C@@H](CC(C)C)C(=O)N[C@@H](CCCCN)C(=O)N[C@H](C(=O)N[C@@H](C)C(=O)N[C@@H](CC(C)C)C(=O)N[C@@H](CCCCN)C(=O)NCC(=O)N[C@@H](C)C(=O)N[C@@H](C)C(=O)N[C@@H](CCCCN)C(=O)N[C@@H](CCC(=O)O)C(=O)N[C@@H](CC(C)C)C(=O)N[C@@H](C)C(=O)N[C@@H](CO)C(=O)N[C@H](C(=O)N[C@@H](Cc1ccc(O)cc1)C(=O)N[C@@H](CC(C)C)C(=O)N[C@@H](Cc1cnc[nH]1)C(N)=O)[C@@H](C)O)[C@@H](C)O)[C@@H](C)CC [GIGGKILGGLKTALKGAAKELASTYLH]
